# From ChEMBL document CHEMBL5500393, “Discovery and Optimization of Novel SaFabI Inhibitors as Specific Therapeutic Agents for MRSA Infection” (J Med Chem, 2024)
# Columns and labels:
# [1] = target: T1, Enoyl-[acyl-carrier-protein] reductase [NADPH] FabI (Staphylococcus aureus) (UniProt Q6GI75); assay: Inhibition of N-terminal his 6 tagged Staphylococcus aureus Fabi (1 to […] residues) expressed in Escherichia coli BL21 at 10 uM incubated for 30 mins in presence of NADPH by fluorescence based microplate reader analysis relative to control
# T1 sequence (whole entry): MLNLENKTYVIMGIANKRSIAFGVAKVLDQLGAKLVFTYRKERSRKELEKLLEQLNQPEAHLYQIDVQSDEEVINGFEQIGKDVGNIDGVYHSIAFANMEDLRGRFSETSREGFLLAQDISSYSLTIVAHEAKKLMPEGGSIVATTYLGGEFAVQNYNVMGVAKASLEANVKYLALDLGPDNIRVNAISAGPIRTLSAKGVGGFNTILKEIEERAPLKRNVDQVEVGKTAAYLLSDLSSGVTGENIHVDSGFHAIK
# [2] = target: T1, Enoyl-[acyl-carrier-protein] reductase [NADPH] FabI (Staphylococcus aureus); assay: Inhibition of N-terminal his 6 tagged Staphylococcus aureus Fabi (1 to […] residues) expressed in Escherichia coli BL21 at 1 uM incubated for 30 mins in presence of NADPH by fluorescence based microplate reader analysis relative to control
# [3] = target: T2, Enoyl-[acyl-carrier-protein] reductase [NADPH] FabI (Staphylococcus aureus, UniProt Q6GI75); assay: Inhibition of N-terminal his 6 tagged Staphylococcus aureus Fabi (1 to […] residues) expressed in Escherichia coli BL21 incubated for 30 mins in presence of NADPH by fluorescence based microplate reader analysis
# T2 sequence (Q6GI75 whole entry): T1 sequence (whole entry)
# Staphylococcus aureus [4] = assay: Antimicrobial activity against […] Staphylococcus aureus ATCC33591 measured after 24 hrs by CLSI protocol based microdilution method; format: functional
# Staphylococcus aureus [5] = assay: Antimicrobial activity against […] Staphylococcus aureus ATCC43300 measured after 24 hrs by CLSI protocol based microdilution method; format: functional
# Staphylococcus aureus [6] = assay: Antimicrobial activity against […] Staphylococcus aureus USA300 measured after 24 hrs by CLSI protocol based microdilution method; format: functional
# Staphylococcus aureus [7] = assay: Antimicrobial activity against […] Staphylococcus aureus NRS271 measured after 24 hrs by CLSI protocol based microdilution method; format: functional
# Staphylococcus aureus [8] = assay: Antimicrobial activity against methicillin-susceptible Staphylococcus aureus ATCC29213 measured after 24 hrs by CLSI protocol based microdilution method; format: functional
# Staphylococcus aureus [9] = assay: Antimicrobial activity against methicillin-susceptible Staphylococcus aureus ATCC25923 measured after 24 hrs by CLSI protocol based microdilution method; format: functional
# Enterococcus faecium = assay: Antimicrobial activity against Enterococcus faecium ATCC19434 measured after 24 hrs by CLSI protocol based microdilution method; format: functional
# Enterococcus faecalis = assay: Antimicrobial activity against Enterococcus faecalis ATCC29212 measured after 24 hrs by CLSI protocol based microdilution method; format: functional
# Pseudomonas aeruginosa = assay: Antimicrobial activity against Pseudomonas aeruginosa PAO1 measured after 24 hrs by CLSI protocol based microdilution method; format: functional
# Escherichia coli = assay: Antimicrobial activity against Escherichia coli ATCC25922 measured after 24 hrs by CLSI protocol based microdilution method; format: functional
# Acinetobacter baumannii = assay: Antimicrobial activity against Acinetobacter baumannii ATCC19606 measured after 24 hrs by CLSI protocol based microdilution method; format: functional
# Candida albicans = assay: Antimicrobial activity against Candida albicans SC5314 measured after 48 hrs by CLSI protocol based microdilution method; format: functional
Compound,inhibition [1] [%],inhibition [2] [%],IC50 [3] [µM],MIC (Staphylococcus aureus [4]) [µg/mL],MIC (Staphylococcus aureus [5]) [µg/mL],MIC (Staphylococcus aureus [6]) [µg/mL],MIC (Staphylococcus aureus [7]) [µg/mL],MIC (Staphylococcus aureus [8]) [µg/mL],MIC (Staphylococcus aureus [9]) [µg/mL],MIC (Enterococcus faecium) [µg/mL],MIC (Enterococcus faecalis) [µg/mL],MIC (Pseudomonas aeruginosa) [µg/mL],MIC (Escherichia coli) [µg/mL],MIC (Acinetobacter baumannii) [µg/mL],MIC (Candida albicans) [µg/mL]
Cn1c(C2CC(=O)N(c3cccc(Cl)c3)C2)nc2ccccc21 (stereo not given),69.6,12.8,3.53,32,> 32,32,32,32,> 32,> 32,> 32,> 32,> 32,> 32,> 32
Cn1ccc2c(N3CC(c4nc5ccccc5n4C)CC3=O)cccc21 (stereo not given),62.1,9.8,8.33,> 32,> 32,> 32,> 32,> 32,> 32,> 32,> 32,> 32,> 32,> 32,> 32
Cn1c(C2CC(=O)N(c3cccc(F)c3F)C2)nc2ccccc21 (stereo not given),91.8,35.3,0.227,16,32,16,32,16,32,> 32,> 32,> 32,> 32,> 32,> 32
CCCn1c(C2CC(=O)N(c3cccc(Br)c3C)C2)nc2ccccc21 (stereo not given),99.5,57.6,0.745,8,4,8,8,4,4,> 32,> 32,> 32,> 32,> 32,> 32
Cn1c(C2CC(=O)N(c3cccc(F)c3Br)C2)nc2ccccc21 (stereo not given),83,23.5,2.73,16,> 32,32,> 32,32,> 32,> 32,> 32,> 32,> 32,> 32,> 32
Cc1cccc(N2CC(c3nc4ccccc4n3C)CC2=O)c1Br (stereo not given),92.6,30.1,1.69,16,32,16,32,16,8,> 32,> 32,> 32,> 32,> 32,> 32
Cn1c(C2CC(=O)N(c3cccc(Br)c3O)C2)nc2ccccc21 (stereo not given),94.1,28.5,1.88,16,16,16,32,16,32,> 32,> 32,> 32,> 32,> 32,> 32
Cc1c(N2CC(c3nc4ccccc4n3C)CC2=O)cccc1[N+](=O)[O-] (stereo not given),98,42.8,1.52,16,16,16,32,8,16,> 32,> 32,> 32,> 32,> 32,> 32
Cn1c(C2CC(=O)N(c3cccc4ccccc34)C2)nc2ccccc21 (stereo not given),96.9,48.4,1.08,8,16,8,16,8,8,> 32,> 32,> 32,> 32,> 32,> 32
Cn1c(C2CC(=O)N(c3cccc(Cl)c3Br)C2)nc2ccccc21 (stereo not given),95.8,46,0.23,8,16,6,16,8,16,> 32,> 32,> 32,> 32,> 32,> 32
Cc1cccc(N2CC(c3nc4ccccc4n3C)CC2=O)c1Cl (stereo not given),95.2,47.3,1.18,8,8,16,8,8,16,> 32,> 32,> 32,> 32,> 32,> 32
Cn1c(C2CC(=O)N(c3ccc(O)c(O)c3)C2)nc2ccccc21 (stereo not given),70.4,10.7,5.19,> 32,> 32,> 32,> 32,> 32,> 32,> 32,> 32,> 32,> 32,> 32,> 32
Cc1c(N2CC(c3nc4ccccc4n3C)CC2=O)cccc1C(F)(F)F (stereo not given),93.9,66.1,0.632,4,4,8,8,4,8,> 32,> 32,> 32,> 32,> 32,> 32
Cc1c(Br)cccc1N1CC(c2nc3cc(F)c(F)cc3n2C)CC1=O (stereo not given),66.7,3.2,5.29,> 32,> 32,> 32,> 32,32,> 32,> 32,> 32,> 32,> 32,> 32,> 32
COc1cccc(N2CC(c3nc4ccccc4n3C)CC2=O)c1C (stereo not given),88.2,27.9,2.27,> 32,32,16,16,16,32,> 32,> 32,> 32,> 32,> 32,> 32
COc1ccc(N2CC(c3nc4ccccc4n3C)CC2=O)cc1Br (stereo not given),72.3,9.4,3.02,> 32,> 32,> 32,> 32,> 32,> 32,> 32,> 32,> 32,> 32,> 32,> 32
Cc1c(Br)cccc1N1CC(c2nc3ccccc3n2C(C)C)CC1=O (stereo not given),87,21.1,1.73,16,16,16,32,8,16,> 32,> 32,> 32,> 32,> 32,> 32
Cc1ccccc1N1CC(c2nc3ccccc3n2C)CC1=O (stereo not given),85.2,18.3,2.41,16,32,32,16,16,32,> 32,> 32,> 32,> 32,> 32,> 32
Cn1c(C2CC(=O)N(c3cccc(Cl)c3F)C2)nc2ccccc21 (stereo not given),97.9,65.4,0.579,4,4,8,8,4,4,> 32,> 32,> 32,> 32,> 32,> 32
